Test results: patent US20110301142A1, “ANTAGONISTS OF LYSOPHOSPHATIDIC ACID RECEPTORS” (priority 2008, published 2011)

Tests used:
[1] = tested on: A2058 human melanoma cells; assay: LPA1 chemotaxis assay; type: cell-based; conditions: 100 nM LPA, read-out: IC50, inhibition of LPA-driven chemotaxis
Protocol: Chemotaxis of the A2058 human melanoma cells was measured using the Neuroprobe ChemoTx® System plates (8 μm pore size, 5.7 mm diameter sites). The filter sites were coated with 0.001% fibronectin (Sigma) in 20 mM Hepes, pH 7.4 and allowed to dry. A2058 cells were serum-starved for 24 hours, then harvested with Cell Stripper and resuspended in DMEM containing 0.1% fatty-acid-free bovine serum albumin (BSA) to a concentration of 1×10^6/ml. Cells were mixed with an equal volume of test compound (2×) in DMEM containing 0.1% fatty-acid-free BSA and incubated at 37° C. for 15 minutes. LPA (100 nM in DMEM containing 0.1% fatty-acid-free BSA) or vehicle was added to each well of the lower chamber and 50 μl of the cell suspension/test compound mix was applied to the upper portion of the ChemoTx plate. Plates were incubated at 37° C. for three hours and then the cells removed from the upper portion by rinsing with PBS and scraping. The filter was dried then stained with HEMA 3 Staining System (Fisher Scientific). The absorbance of the filter was read at 590 nm and IC50s were determined using Symyx Assay Explorer.

Female C57BL/6 mice [2] = assay: Mouse carbon tetrachloride (CCl4)-induced liver fibrosis model; type: in vivo; conditions: for collagen deposition in the liver as compared to the untreated group: CCl4-induced liver fibrosis
Protocol: Female C57BL/6 mice (Harlan, 20-25 g) housed 4/cage are given free access to food and water and allowed to acclimate for at least 7 days prior to test initiation. After the habituation phase, mice receive CCl4 (0.5-1.0 ml/kg body weight) diluted in corn oil vehicle (100 μL volume) via i.p. injection twice a week for 4-6 weeks. (Higazi, A. A. et al., Clin Exp Immunol. 2008 April; 152(1):163-73. Epub 2008 Feb. 14.). Control mice receive an equivalent volume of corn oil vehicle only. Test compound or vehicle is delivered po, ip or sc daily. At the end of the study (4-6 weeks after first i.p. injection of CCl4), mice are sacrificed using inhaled isoflurane and blood is drawn via cardiac puncture for subsequent analysis of ALT/AST levels. The liver is harvested, and one half of the liver is frozen at −80° C. and the other half is fixed in 10% neutral buffered formalin for histological assessment of liver fibrosis using light microscopy (10× magnification). Liver tissue homogenates are analyzed for collagen levels using Sircol (Biocolor Ltd, UK). Fixed Liver tissue is stained using hematoxylin and eosin (H&E) and trichrome and liver fibrosis is determined by quantitative, computer-assisted densitometry of collagen in liver tissue sections using light microscopy. Plasma and liver tissue lysates are also analyzed for concentrations of inflammatory, pro-fibrotic and tissue injury biomarkers including transforming growth factor β1, hyaluronic acid, tissue inhibitor of metalloproteinase-1, matrix matelloproteinase-7, connective tissue growth factor and lactate dehydrogenase activity, using commercially available ELISA. The resulting data are plotted using Graphpad prism and statistical differences between groups determined.

Female C57BL/6 mice [3] = assay: Mouse unilateral ureteral obstruction kidney fibrosis model; type: in vivo
Protocol: Female C57BL/6 mice (Harlan, 20-25 g) housed 4/cage will be given free access to food and water and allowed to acclimate for at least 7 days prior to test initiation. After the habituation phase, mice undergo unilateral ureteral obstruction (UUO) surgery or sham to left kidney. Briefly, a longitudinal, upper left incision is performed to expose the left kidney. The renal artery is located and 6/0 silk thread is passed between the artery and the ureter. The thread is looped around the ureter and knotted 3 times insuring full ligation of ureter. The kidney is returned to abdomen, the abdominal muscle is sutured and the skin is stapled closed. Mice are returned to their cages and monitored daily for the duration of the experiment. Test compound or vehicle is delivered po, ip or sc daily. The route and frequency of dosing is based on previously determined pharmacokinetic properties. All animals are sacrificed using inhaled isoflurane 4, 8 or 14 days after UUO surgery. […] Kidney tissue homogenates are analyzed for collagen levels using Sircol (Biocolor Ltd, UK). Fixed kidney tissue is also stained using hematoxylin and eosin (H&E) and trichrome and kidney fibrosis is determined by quantitative, computer-assisted densitometry of collagen in […] tissue sections using light microscopy. […] The resulting data are plotted using Graphpad prism and statistical differences between groups determined.

| SMILES | IC50 [1] | effect on collagen deposition compared to pirfenidone (Female C57BL/6 mice [2]; 30 mg/kg, po, qd) | collagen deposition in the liver as compared to the untreated group (Female C57BL/6 mice [2]) | reduction of kidney fibrosis as compared to the untreated group (Female C57BL/6 mice [3]) |
| --- | --- | --- | --- | --- |
| Cc1noc(-c2ccc(-c3ccc(CC(=O)O)cc3)cc2)c1NC(=O)O[C@H](C)c1ccccc1Cl [Compound 1-88, (4′-{4-[(R)-1-(2-Chloro-phenyl)-ethoxycarbonylamino]-3-methyl-isoxazol-5-yl}-biphenyl-4-yl)-acetic acid] | < 300 nM | same effect on collagen deposition as pirfenidone | significantly reduced | at least 20% |
| Cc1noc(-c2ccc(-c3ccc(CC(=O)O)cc3)cc2)c1NC(=O)O[C@H](C)c1ccccc1 [Compound 1-115] | < 300 nM | – | significantly reduced | 55% |
